In patent publication US4731375A, “Coumarin derivatives and antiallergic agents containing the same” (Kaken Pharmaceutical Co., Ltd., priority 1984, dated 1988):

test system: passive cutaneous anaphylaxis by homocytotropic antibody (HTA); experiment: Passive Cutaneous Anaphylaxis (PCA) test in rat (Test Example 1); type: in vivo, rat (Wistar); details: 0.5 h, 72 hour PCA, intravenous just before antigen, sacrificed 30 minutes after antigen challenge, read-out: ID50 (fifty % inhibitory dose for the leaked amount of the pigment)
Procedure: (§1) Fifty % inhibitory dose (ID50) in Passive Cutaneous Anaphylaxis (PCA) test in rat (Test Example 1) and Minimal Lethal Dose (MLD) in intraperitoneal acute toxicity test in mouse (Test Example 2) were determined for the typical compounds of the present invention as follows:
The antiallergic activities of the chromene derivatives of the present invention were tested in passive cutaneous anaphylaxis (hereinafter referred to as "PCA") by homocytotropic antibody (hereinafter referred to as "HTA").
DNP-As(2,4-dinitro phenyl-coupled Ascaris extract) was prepared according to the method by Strejan et al. (J. Immunol. Vol. 98, P 893, (1967)) and by Eisen (J. Amer. Chem. Soc. Vol. 75, P 4593, (1953)) to be used as antigen. Antiserum containing HTA was prepared by the method according to Tada and Okumura (J. Immunol. Vol. 106, P 1002, (1972)) as follows: i.e. spleen was taken out from Wistar female rat weighing 180 to 200 g and several days after 1 mg of DNP-As and 1×10^10 of Bordetella pertussis vaccine were injected into four footpads of the rat to induce senitization. After five days, again 0.5 mg of DNP-As was solely injected into the dorsal muscles. Eight days after priming, blood was taken by paracentesis of aorta under anesthetic condition with ether and the obtained antiserum was stored at -80° C.
Titer of the stored antiserum was determined by 72 hour PCA method in rat as described in the following item (2). The maximal dilution of the antiserum which can give a spot with a diameter of around 5 mm was usually 500 times.
The diluted antiserum (×30) was injected 0.05 ml/site intradermally into the shaved back of normal Wistar rat weighing 140 to 160 g. After 72 hours, 1 ml of physiological saline containing 2 mg of DNP-As and 2.5 mg of Evans blue was injected intravenously.
Test compound was dissolved in 0.5% aqueous solution of KHCO3, which was administered intravenously in an amount of 2 ml/kg just before the administration of the antigen. The animal was sacrificed 30 minutes after antigen challenge and the cutis was peeled off. The intensity of PCA was evaluated for the measurment of the leaked amount of the pigment. The leaked pigment was extracted according to the method by Harada et al. (Jpn. J. Allergol., Vol. 15, P 1, (1966)) and the leaked amount was measured by spectrophotometry. Fifty % inhibitory dose for the leaked amount of the pigment was regarded as ID50 value of the test compound.

Compound | ED50
O=C(O)CCCCCOc1ccc2oc(=O)c(-c3nnn[nH]3)cc2c1 [Compound F, 6-[2-oxo-3-(1H-tetrazole-5-yl)-2H-chromene-6-yloxy]hexanoic acid] | 0.16 mg/kg
O=C(O)CCCOc1ccc2oc(=O)c(-c3nnn[nH]3)cc2c1 [Compound C, 4-[2-oxo-3-(1H-tetrazole-5-yl)-2H-chromene-6-yloxy]butyric acid] | 0.1 mg/kg
O=C(O)CCCCCOc1ccc2cc(-c3nnn[nH]3)c(=O)oc2c1 [Compound E, 6-[2-oxo-3-(1H-tetrazole-5-yl)-2H-chromene-7-yloxy]hexanoic acid] | 0.2 mg/kg
O=C(O)CCCCCOc1cccc2oc(=O)c(-c3nnn[nH]3)cc12 [Compound G, 6-[2-oxo-3-(1H-tetrazole-5-yl)-2H-chromene-5-yloxy]hexanoic acid] | 0.2 mg/kg
O=C(O)CCCCCOc1cccc2cc(-c3nnn[nH]3)c(=O)oc12 [Compound D, 6-[2-oxo-3-(1H-tetrazole-5-yl)-2H-chromene-8-yloxy]hexanoic acid] | 0.16 mg/kg
O=C(O)COc1cccc2cc(-c3nnn[nH]3)c(=O)oc12 [Compound A, [2-oxo-3-(1H-tetrazole-5-yl)-2H-chromene-8-yloxy]acetic acid] | 0.5 mg/kg
O=C(O)CCCOc1cccc2cc(-c3nnn[nH]3)c(=O)oc12 [Compound B, 4-[2-oxo-3-(1H-tetrazole-5-yl)-2H-chromene-8 yloxy]butyric acid] | 0.1 mg/kg

test system: mouse; experiment: intraperitoneal acute toxicity test in mouse (Test Example 2); type: in vivo, mouse (Slc: ddy male); details: 14 days observation, five mice per group
Procedure: as §1
The intraperitoneal actute toxicity test was carried out using mouse for the chromene derivatives of the present invention. Normal Slc: ddy male 4 weeks mice were preliminarily breeded for a week at a breeding room and those weighing 25 to 27 g were subjected to the test. The test compounds were used by suspending in 0.5% aqueous solution of sodium carboxymethylcellulose. Ten ml/kg was administered intraperitoneally through the right abdomen of the animal using the prescribed needle (five mice per group). The lethal dose was presumed by the observation during 14 days after administration.

Compound | MLD (Minimal Lethal Dose)
O=C(O)CCCCCOc1ccc2oc(=O)c(-c3nnn[nH]3)cc2c1 [Compound F, 6-[2-oxo-3-(1H-tetrazole-5-yl)-2H-chromene-6-yloxy]hexanoic acid] | > 1600 mg/kg
O=C(O)CCCOc1ccc2oc(=O)c(-c3nnn[nH]3)cc2c1 [Compound C, 4-[2-oxo-3-(1H-tetrazole-5-yl)-2H-chromene-6-yloxy]butyric acid] | > 1500 mg/kg
O=C(O)CCCCCOc1ccc2cc(-c3nnn[nH]3)c(=O)oc2c1 [Compound E, 6-[2-oxo-3-(1H-tetrazole-5-yl)-2H-chromene-7-yloxy]hexanoic acid] | > 1500 mg/kg
O=C(O)CCCCCOc1cccc2oc(=O)c(-c3nnn[nH]3)cc12 [Compound G, 6-[2-oxo-3-(1H-tetrazole-5-yl)-2H-chromene-5-yloxy]hexanoic acid] | > 1500 mg/kg
O=C(O)CCCCCOc1cccc2cc(-c3nnn[nH]3)c(=O)oc12 [Compound D, 6-[2-oxo-3-(1H-tetrazole-5-yl)-2H-chromene-8-yloxy]hexanoic acid] | > 1600 mg/kg
O=C(O)COc1cccc2cc(-c3nnn[nH]3)c(=O)oc12 [Compound A, [2-oxo-3-(1H-tetrazole-5-yl)-2H-chromene-8-yloxy]acetic acid] | > 1000 mg/kg
O=C(O)CCCOc1cccc2cc(-c3nnn[nH]3)c(=O)oc12 [Compound B, 4-[2-oxo-3-(1H-tetrazole-5-yl)-2H-chromene-8 yloxy]butyric acid] | > 1600 mg/kg

test system: experimental asthma model of animals; experiment: experimental asthma model of animals; type: in vivo; details: not given

Compound | inhibitory effect in experimental asthma model
O=C(O)CCCOc1cccc2cc(-c3nnn[nH]3)c(=O)oc12 [Compound B, 4-[2-oxo-3-(1H-tetrazole-5-yl)-2H-chromene-8 yloxy]butyric acid] | inhibitory effect in high degree
